Source: patent US5041542A, “Substituted pyrimido[5,4-d]pyrimidine nucleosides” (Nucleic Acid Research Institute, priority 1988, dated 1991)

What was measured:
[1] = test system: L1210 leukemia; details: mouse, in vivo; cited from earlier work
[2] = test system: human immunodeficiency virus; assay: In vitro activity against HIV, viral cytopathic effect; format: cell-based
Experimental: (§1) Compound 8 was evaluated by the National Cancer Institute for in vitro activity against human immunodeficiency virus (HIV: cell line:CEM-V). In this test the compound was screened using human "host" cells with and without virus. The test is conducted for seven days (during which time infected, non-drug treated control cells are largely or totally destroyed by the virus), and then the number of remaining viable cells are determined. […] A therapeutic index (TI) can be calculated as the IC/EC ratio.

[3] = test system: CEM-V cells; assay: Growth inhibition of normal, uninfected cells (HIV test); format: cell-based; details: Homo sapiens, 168 h
Experimental: as §1

[4] = Intracellular phosphorylation (SAX-HPLC); format: cell-based
[5] = test system: DNA and RNA viruses; details: cited from earlier work
[6] = test system: Herpes 2, parainfluenza 3 and Vaccinia; format: cell-based; details: tested in parallel with ARPP (8)
[7] = Anomerization in aqueous solution (reverse-phase HPLC); format: physicochemical; details: buffered, 37° C., 9 h, no added protein
Experimental: This would be expected where the rate of anomerization is slow compared to the rate of deamination.
The compounds of the invention are capable of crossing the cell membrane, and activated to the 5'-phosphate, thus causing the inhibition of the de novo purine biosynthesis.
HPLC Analysis: Sample components were separated with an LKB model 2150 gradient HPLC system at ambient temperature on an Altex Ultrashere-ODS reverse phase column (Beckman) developed with a linear gradient of buffer A (10 mM KPO4 ', pH 3.83) to 20% component B (60% aqueous CH3 CN) at a combined flow rate of 1.0 mL/min over 15 min. Ultraviolet (UV) absorbance was monitored with an LKB model 2140 diode array detector. Inhibition of de novo purine biosynthesis: WI-L2 or adenosine kinase-deficient cells were preincubated at 37° C. with drug for various time periods prior to labeling with [^14 C]formate. Enzyme Assays: Adenosine kinase inhibition studies were accomplished by the filter binding assay method. Inhibition studies were done at 37° C. with an assay mixture containing 4 mM ATP, 1.5 mM MgCl2, 5 or 10 μM [8-^14 C] adenosine (50 mCi/mmol) and 100 mM Tris-maleate, pH 5.5. To prevent the enzymatic breakdown of adenosine, erythro-9-(2-hydroxy-3-nonyl)adenine (EHNA) was added to the cell-free WI-L2 lysate to give 5 μM final assay concentration. The assay was started by the addition of protein. The amount of enzyme, time of assay and sampling volume were adjusted to give acceptable conversion of [8-^14 C] adenosine to [8-^14 C]AMP. Each DE-81 filter was spotted with a constant sampling volume and immersed in H 2 O (4 L) to terminate the reaction. Filters were washed three times with H2 O (4 L) and once with EtOH (100 mL). Dry filters were placed in scintillation vials and radioactivity was counted with 10 mL toluene-based scintillation cocktail.

[8] = target: T1, WI-L2 adenosine kinase (Homo sapiens, UniProt P55263); assay: Adenosine kinase inhibition (filter binding assay); format: biochemical; details: decrease in rate of [14C]AMP formation from [14C]adenosine
T1 construct: added to the cell-free WI-L2 lysate to give 5 μM final assay concentration; endogenous in cells; host or cells: WI-L2 B lymphoblast cells (cell-free lysate)

[9] = in vivo; details: mouse, ip

T1 sequence (P55263 whole entry): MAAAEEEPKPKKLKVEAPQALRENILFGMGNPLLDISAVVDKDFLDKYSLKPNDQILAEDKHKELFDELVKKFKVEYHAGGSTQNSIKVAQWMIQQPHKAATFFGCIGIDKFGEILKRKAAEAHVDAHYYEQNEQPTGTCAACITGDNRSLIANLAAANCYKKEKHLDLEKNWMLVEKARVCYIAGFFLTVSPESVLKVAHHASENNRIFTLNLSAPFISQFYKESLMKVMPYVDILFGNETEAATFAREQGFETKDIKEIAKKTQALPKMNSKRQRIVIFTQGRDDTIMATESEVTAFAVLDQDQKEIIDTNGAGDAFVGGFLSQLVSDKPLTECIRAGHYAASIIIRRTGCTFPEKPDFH

Compound	growth of L1210 leukemia in mice (cited) [1]	EC50 ([2]; Human immunodeficiency virus 1, 168 h, read-out: EC50 (50% reduction of viral cytopathic effect)) [nM]	EC90 ([2]; Human immunodeficiency virus 1, 168 h, HIV, CEM-V cells, seven days, read-out: EC90 (90% reduction of viral cytopathic effect)) [nM]	therapeutic index at 50% (IC/EC ratio) ([2]; IC50/EC50, HIV, CEM-V, 10080 min)	therapeutic index at 90% (IC/EC ratio) ([2]; IC90/EC90, HIV, CEM-V, 10080 min)	IC50 ([3]; read-out: IC50 (50% growth inhibition), seven days) [nM]	IC90 ([3]; seven days) [nM]	intracellular phosphate formation [4]	antiviral activity in cell culture (cited) [5]	Antiviral activity in cell culture [6]	21 (anomeric mixture) formed from compound 14 [7] [%]	α-anomer 17 formed from compound 14 [7] [%]	direct inhibition of adenosine kinase [8]	MTD [9] [mg/kg]
Nc1ncnc2c(N[C@@H]3O[C@H](CO)[C@@H](O)[C@H]3O)ncnc12 [Compound 8, 4-Amino-8-(β-D-ribofuranosylamino)pyrimido[5,4-d]pyrimidine, reference compound]	inhibits the growth of L1210 leukemia in mice	95.1	768	2.05×10^1	8.60×10^0	1950	6600	formation of intracellular ARPP 5'-monophosphate but no higher phosphate analogues	antiviral activity for DNA and RNA viruses in cell culture by inhibiting viral protein synthesis	–	–	–	–	–
COc1ncnc2c(N[C@@H]3O[C@H](CO)[C@@H](O)[C@H]3O)ncnc12 [Compound 14, 4-Methoxy-8-(β-D-ribofuranosylamino)pyrimido[5,4-d]pyrimidine]	–	–	–	–	–	–	–	–	–	antiviral activity	0.42	1.35	Direct inhibition	62
